From patent publication US6534496B1, “Thermogenic composition and benzazepine thermogenics” (Takeda Chemical Industries, Inc., priority 1997, dated 2003) come the findings set out here.

Counter-ions that a name gives are not always drawn.

Broadly, the melting point is the temperature of the solid-liquid transition. Compound `CCOC(=O)COc1ccc(CN2CCC(CCC(=O)c3ccc4c(c3)CCN(Cc3ccc(F)cc3)CC4)CC2)cc1` (as salt: hydrochloride) [Example 45, Ethyl 2-[4-[[4-[3-[3-[(4-fluorophenyl)methyl]-2,3,4,5-tetrahydro-1H-3-benzazepin-7-yl]-3-oxopropyl]-1-piperidinyl]methyl]phenoxy]ethanoate Dihydrochloride] registered a melting point of 206 to 208 °C.
Regarding `O=C(CCC1CCN(Cc2ccc(-c3ccccc3)cc2)CC1)c1ccc2c(c1)CCN(Cc1ccc(F)cc1)CC2` (as salt: hydrochloride) [Example 49, 1-[3-[(4-Fluorophenyl)methyl]-2,3,4,5-tetrahydro-1H-3-benzazepin-7-yl]-3-[1-[(4-phenylphenyl)methyl]-4-piperidinyl]-1-propanone Dihydrochloride], the melting point is 225 to 228 °C (dec.).
The value for `O=C(CCC1CCNCC1)c1ccc2c(c1)CN(Cc1ccc(F)cc1)CCO2` (as salt: hydrochloride) [Example 78, 1-[4-[(4-Fluorophenyl)methyl]-2,3,4,5-tetrahydro-1,4-benzoxazepin-7-yl]-3-(4-piperidinyl)-1-propanone Dihydrochloride] was 173 to 174 °C.
The value for `Cc1cccc(CN2CCC(CCC(=O)c3ccc4c(c3)CN(Cc3ccc(F)cc3)CCO4)CC2)c1` (as salt: hydrochloride) [Example 79, 1-[4-[(4-Fluorophenyl)methyl]-2,3,4,5-tetrahydro-1,4-benzoxazepin-7-yl]-3-[1-[(3-methylphenyl)methyl]-4-piperidinyl]-1-propanone Dihydrochloride] was 223 to 225 °C; that for `O=C(CCC1CCN(Cc2cccc(Cl)c2)CC1)c1ccc2c(c1)CN(Cc1ccc(F)cc1)CCO2` (as salt: hydrochloride) [Example 80, 3-[1-[(3-Chlorophenyl)methyl]-4-piperidiny]-1-[4-[(4-fluorophenyl)methyl]-2,3,4,5-tetrahydro-1,4-benzoxazepin-7-yl]-1-propanone Dihydrochloride] was 224 to 225 °C; that for `O=C(CCC1CCN(Cc2cccc(F)c2)CC1)c1ccc2c(c1)CN(Cc1ccc(F)cc1)CCO2` (as salt: hydrochloride) [Example 81, 3-[1-[(3-Fluorophenyl)methyl]-4-piperidiny]-1-[4-[(4-fluorophenyl)methyl]-2,3,4,5-tetrahydro-1,4-benzoxazepin-7-yl]-1-propanone Dihydrochloride] was 228 to 231 °C.
`Cc1ccccc1CN1CCC(CCC(=O)c2ccc3c(c2)CN(Cc2ccc(F)cc2)CCO3)CC1` (as salt: hydrochloride) [Example 83, 1-[4-[(4-Fluorophenyl)methyl]-2,3,4,5-tetrahydro-1,4-benzoxazepin-7-yl]-3-[1-[(2-methylphenyl)methy]-4-piperidinyl]-1-propanone Dihydrochloride] displayed a melting point of 216 to 219 °C.
The result for `O=C(CCC1CCN(Cc2ccc(C(F)(F)F)cc2)CC1)c1ccc2c(c1)CN(Cc1ccc(F)cc1)CCO2` (as salt: hydrochloride) [Example 88, 1-[4-[(4-Fluorophenyl)methyl]-2,3,4,5-tetrahydro-1,4-benzoxazepin-7-yl]-3-[1-[[4-(trifluoromethyl)phenyl]methyl]-4-piperidinyl]-1-propanone Dihydrochloride] reads 234 to 237 °C; that for `COc1ccc(CN2CCc3ccc(C(=O)CCC4CCN(Cc5ccc(C(C)(C)C)cc5)CC4)cc3CC2)cc1` (as salt: hydrochloride) [Example 93, 1-[3-[(4-methbyphenyl)methyl]-2,3,4,5-tetrahydro-1H-3-benzazepin-7-yl]3-[1-[[4-(tert-butyl)phenyl]methyl]-4-piperidinyl]-1-propanone Dihydrochloride], 241 to 244 °C (dec.).
The value for `COc1ccc(CN2CCc3ccc(C(=O)CCC4CCN(Cc5ccc(Cl)c(Cl)c5)CC4)cc3CC2)cc1` (as salt: hydrochloride) [Example 96, 3-[1-[(3,4-Dichlorophenyl)methyl]-4-piperidinyl]-1-[3-[(4-methoxyphenyl)methyl]-2,3,34,5-tetrahydro-1H-3-benzazepin-7-yl]-1-propanone Dihydrochloride] was 220 to 223 °C (dec.); that for `O=C(CCC1CCN(Cc2cccc(-c3ccccc3)c2)CC1)c1ccc2c(c1)CN(Cc1ccc(F)cc1)CCO2` (as salt: hydrochloride) [Example 99, 1-[4-[(4-Fluorophenyl)methyl]-2,3,4,5-tetrahydro-1,4-benzoxazepin-7-yl]-3-[1-[(3-phenylphenyl)methyl]-4-piperidinyl]-1-propanone Ddihydrochloride] was 187 to 189 °C; that for `CCOC(=O)COc1cccc(CN2CCC(CCC(=O)c3ccc4c(c3)CN(Cc3ccc(F)cc3)CCO4)CC2)c1` (as salt: hydrochloride) [Example 103, Ethyl 2-[3-[[4-[3-[4-[(4-fluorophenyl)methyl]-2,3,4,5-tetrahydro-1,4-benzoxazepin-7-yl]-3-oxopropyl]-1-piperidinyl]methyl]phenoxy]ethanoate Dihydrochloride] was 200 to 203 °C.
Consider `CC(C)(C)c1ccc(CN2CCC(CCC(=O)c3ccc4c(c3)CN(Cc3ccc(F)cc3)CCO4)CC2)cc1` (as salt: hydrochloride) [Example 108, 1-[4-[(4-Fluorophenyl)methyl]-2,3,4,5-tetrahydro-4-benzoxazepin-7-yl]-3-[1-[[4-(tert-butyl)phenyl]methyl]-4-piperidinyl]-1-propanone Dihydrochloride], for which the melting point lay in the range of 240 to 243 °C.
`Cc1ccccc1CN1CCc2ccc(C(=O)CCCC3CCN(Cc4ccccc4C)CC3)cc2CC1` (as salt: hydrochloride) [Example 127, 4-[1-[(2-Methylphenyl)methyl]-4-piperidinyl]-1-[3-[(2-methylphenyl)methyl]-2,3,4,5-tetrahydro-1H-3-benzazepin-7-yl]-1-butanone Dihydrochloride] yielded a melting point of 183 to 186 °C.
For `Cc1ccccc1CN1CCc2ccc(C(=O)CCCC3CCN(Cc4ccccc4)CC3)cc2CC1` (as salt: hydrochloride) [Example 129, 1-[3-[(2-Methylphenyl)methyl]-2,3,4,5-tetrahydro-1H-3-benzazepin-7-yl]-4-[1-(phenylmethyl)-4-piperidinyl]-1-butanone Dihydrochloride], the melting point lay in the range of 191 to 194 °C.
`Cc1ccccc1CN1CCc2ccc(C(=O)CCCC3CCN(Cc4cccc(Cl)c4)CC3)cc2CC1` (as salt: hydrochloride) [Example 130] showed a melting point of 180 to 183 °C.
`COC(=O)c1cccc(CN2CCC(CCCC(=O)c3ccc4c(c3)CCN(Cc3ccccc3)CC4)CC2)c1` (as salt: hydrochloride) [Example 152, Methyl 3-[[4-[4-[3-(phenylmethyl)-2,3,4,5-tetrahydro,-1H-3-benzazepin-7-yl]-4-oxobutyl]-1-piperidinyl]methyl]benzoate Dihydrochloride] showed a melting point of 194 to 200 °C.
The compound `CCOC(=O)C(C)(C)c1cccc(CN2CCC(CCCC(=O)c3ccc4c(c3)CCN(Cc3ccccc3)CC4)CC2)c1` (as salt: hydrochloride) [Example 153, Ethyl 2-methyl-2-[3-[[4-[4-[3-(phenylmethyl)-2,3,4,5-tetrahydro-1H-3-benzazepin-7-yl]-4-oxobutyl]-1-piperidinyl]methyl]phenyl]propionate Dihydrochloride] showed a melting point of 146 to 148 °C.
Regarding `O=C(CCCC1CCN(Cc2cccc([N+](=O)[O-])c2)CC1)c1ccc2c(c1)CCN(Cc1ccccc1)CC2` (as salt: hydrochloride) [Example 154, 4-[1-[(3-Nitrophenyl)methyl]-4-piperidinyl-1-(3-(phenylmethyl)-2,3,4,5-tetrahydro-1H-3-benzazepin-7-yl]-1-butanone Dihydrochloride], the melting point was 239 to 244 °C (dec.).
On to `COc1cccc(CN2CCC(CCCC(=O)c3ccc4c(c3)CCN(Cc3ccccc3)CC4)CC2)c1` (as salt: hydrochloride) [Example 156, 4-[1-[(3-Methoxyphenyl)methyl]-4-piperidinyl]-1-[3-(phenylmethyl)-2,3,4,5-tetrahydro-1H-3-benzazepin-7-yl]-1-butanone Dihydrochloride], for which the melting point was 215 to 218 °C (dec.).
The result for `O=C(CCCC1CCN(Cc2ccccc2Cl)CC1)c1ccc2c(c1)CCN(Cc1ccccc1)CC2` (as salt: hydrochloride) [Example 178, 4-[1-[(2-Chlorophenyl)methyl]-4-piperidinyl]-1-[3-(phenylmethyl)-2,3,4,5-tetrahydro-1H-3-benzazepin-7-yl]-1-butanone Dihydrochloride] reads 226 to 229 °C (dec.).
The result for `CC(=O)Nc1cccc(CN2CCC(CCCC(=O)c3ccc4c(c3)CCN(Cc3ccccc3)CC4)CC2)c1` (as salt: hydrochloride) [Example 179, N-[3-[[4-[4-[3-(Phenylmethyl)-2,3,4,5-tetrahydro-1H-3-benzazepin-7-yl]-4-oxobutyl]-1-piperidinyl]methyl]phenyl]acetamide Dihydrochloride] reads 179 to 187 °C.
The value for `Cc1ccc(CN2CCc3ccc(C(=O)CCCC4CCN(Cc5ccc(F)cc5)CC4)cc3CC2)cc1` (as salt: hydrochloride) [Example 192, 4-[1-[(4-Fluorophenyl)methyl]-4-piperidinyl]-1-[3-[(4-methylphenyl)methyl]-2,3,4,5-tetrahydro-1H-3-benzazepin-7-yl]-1-butanone Dihydrochloride] was 225 to 228 °C; that for `Cc1ccc(CN2CCC(CCCC(=O)c3ccc4c(c3)CCN(Cc3ccccc3[N+](=O)[O-])CC4)CC2)cc1` (as salt: hydrochloride) [Example 198, 4-[1-[(4-Methylphenyl)methyl]-4-piperidinyl]-1-[3-[(2-nitrophenyl)methyl]-2,3,4,5-tetrahydro-1H-3-benzazepin-7-yl]-1-butanone Dihydrochloride] was 164 to 167 °C; that for `Cc1ccc(CN2CCC(CCCC(=O)c3ccc4c(c3)CCN(Cc3cccc(Cl)c3)CC4)CC2)cc1` (as salt: hydrochloride) [Example 202, 1-[3-[(3-Chlorophenyl)methyl]-2,3,4,5-tetprahydro-1H-3-benzazepin-7-yl]-4-[1-[(4-methylphenyl)methyl]-4-piperidinyl]-1-butanone Dihydrochloride] was 195 to 198 °C.
